Measurements reported in US20250145570A1, “DHODH INHIBITOR POLYMORPH” (Aslan Pharmaceuticals Pte Ltd, priority 2022, published 2025).
Entries after “also recorded” stand apart in the source; their conditions may differ. Like-named read-outs stand apart in the source and are kept apart here. One block for each compound: values may come before it.

How the values were obtained:
Type in all cases: physicochemical
[1] = Particle size distribution (PSD)
[2] = Polymorph screening experiments (XRPD of returned solids); conditions: for XRPD after thermal cycling: 5-40° C., ~72 hours, THP and THF; for XRPD after 2-week slurry: 40° C.; for XRPD (Grind): fast evaporation at 100° C., post-grinding
Experimental: A solvent solubility screen was carried out on the farudodstat DSP polymorph (also referred to as CS-276-22 in the following examples) to determine its solubility in various solvents, and to gain an initial assessment of the polymorphic landscape. To ˜20 mg samples of predominantly amorphous farudodstat, aliquots (2×50 μL and then 100 μL) of the chosen solvents were added until dissolution was observed, or 2 mL had been added. The samples were manually agitated and heated to ˜40° C. in a block attached to a water bath in between each aliquot Clear solutions were uncapped and allowed to evaporate at room temperature. Any solids obtained from slurries and from evaporation were analysed by X-ray powder diffraction (XRPD).
16×20 mg of the farudodstat DSP polymorph sample was weighed into 2 mL bead mill vials and was milled for 1.5 hrs for amorphization. Next, 5 μL of appropriate solvents (see Table 6) were added to each sample. The samples were then bead milled using the following procedure: • 1. 2 stainless steel beads were added to each vial. • 2. 4500 rpm • 3. 10×90 s cycles • 4. 10 s hold between each cycle • 5. Repeated 4× to give 1 hr milling time
16×20 mg of farudodstat sample was first weighed into 2 mL bead mill vials and was milled to prepare amorphous material. To all the […] bead milled samples, appropriate solvents (see Table 6) were added in 100 μL aliquots until a mobile slurry was obtained without any dissolution observed. Between additions, the samples were stirred at 40° C. Samples were then stirred, and temperature cycled between 5-40° C. (0.1° C./min heating/cooling rate, 1 hour hold at each temperature) for ˜72 hours.
After 48 hours, samples were checked. If necessary, additional solids added. Non-mobile solid in solution samples were agitated using a spatula until a mobile slurry was obtained. Slurries were isolated by centrifugation ([…] nylon filters) and the solids analysed by XRPD. Post XRPD analysis, the XRPD plate was dried at 40° C. under vacuum for 48 hours and the solids reanalysed by XRPD to give an indication of form stability.
The saturate isolated from the previous thermal cycling experiment was left to evaporate at room temperature. Any solids returned from evaporation were analysed by XRPD.
16×20 mg of farudodstat sample was weighed into 2 mL bead mill vials and then milled to prepare amorphous material. To the bead milled sample, appropriate solvent was added in 100 μL aliquots until a mobile slurry was obtained without any dissolution observed. Between additions, the samples were stirred at 50° C. and 100° C. depending upon the boiling point of the solvent to dissolve the API in the solvent system. Samples were checked and slurries were isolated by centrifugation ([…] Nylon filters) and the saturates were put in an HPLC vials. Next, the vials were uncapped and were left to evaporate at 50° C. using a water bath. Finally, after the complete evaporation of solvent, the remaining solid were analysed by XRPD to check for appearance of any new patterns.
20 mg×5 of farudodstat sample was weighed into 2 ml bead mill vials and milled to prepare amorphous material. To the bead milled sample, appropriate solvent was added in 100 μL aliquots until a mobile slurry was obtained without any dissolution observed. Between additions, the samples were stirred at 100° C. to dissolve the API in the solvent system. Samples were checked and slurries were isolated by centrifugation (0.22 μm Nylon filters) and the saturates were put in an HPLC vials. The vials were then uncapped and were left to evaporate at 100° C. using a sand bath. After the complete evaporation of solvent, the remaining solid were analysed by XRPD to check for appearance of any new patterns.
20 mg×16 farudodstat sample was weighed into 2 ml bead mill vials and milled to prepare amorphous material. The appropriate solvent was added in 100 μL aliquots until a mobile slurry was obtained without any dissolution observed. […]

[3] = Approximate solubility by manual dilution combined with visual observation; conditions: thermodynamic from solid
Experimental: The approximate solubility was tested at room temperature by manual dilution combined with visual observation. The solubility of material in different single and mixed solvents was determined at the concentration once no particles of farudodstat could be visually observed in solvents.

[4] = Form stability of DSP polymorph after processing/recrystallisation (XRPD, DSC, TGA)
Experimental: The farudodstat DSP polymorph was characterized using X-ray powder diffraction (XRPD), differential scanning calorimetry (DSC), thermogravimetric analysis, (TGA) and polarized light microscopy (PLM). Then it was subjected to various recrystallisation and analysis to confirm it was a DSP polymorph.
The suspensions of the DSP polymorph were prepared in different single solvents and mixed solvents (see Table 4 below). After this the samples were kept shaking for 72 hrs at 25° C. and 50° C. before they were centrifuged at 14,000 rpm for 10 mins until solid material was separated from the supernatant. The centrifuged samples were investigated by XRPD. The samples were dried under vacuum conditions at 40° overnight and investigated by XRPD, DSC and TGA if new XRPD patterns were found.
The farudodstat DSP polymorph was subject to processing or treated to test the physical stability of the form.
50 mg of the DSP polymorph was dissolved in the selected solvents (see Table 4) according to the solubility results to form saturated solutions. Next, the anti-solvent was slowly added into the solution under stirring until the precipitation formed. If there was no solid precipitation at room temperature, the sample was transferred into the freezer and stored at −20° C. After this, the slurries were stirred for 24 hours before they were centrifuged at 14,000 rpm for 10 mins, until solid material was separated from the supernatant. The centrifuged samples were investigated by XRPD. The samples were next dried under vacuum conditions at 40° C. overnight. If crystalline XRPD patterns were found, the samples were further investigated by XRPD, DSC and TGA.
Due to the high solubility of the DSP polymorph in some solvents (see Table 4), these solvents were chosen for the evaporation test. The solutions were prepared according to the solubility of the compound and were kept open at room temperature to let the solvents evaporate to form crystals. After evaporation was complete, the dried solids were collected and investigated by XRPD. Further tests were performed on DSC and TGA if new XRPD patterns were found.
10-30 mg of the original form of ASLAN003 was loaded into glass vials and placed in a thermomixer at either 60° C. or 50° C. After this, the selected solvents (see Table 4) were slowly added to the samples until the compound was completely dissolved. Next, the samples were transferred into the Crystal 16 crystallizer and the cooled to 0° C. at a rate of 0.5° C./min, before they were held at 0° C. for 24 hrs. If there was no solid precipitation at 0° C., the sample was transferred into a freezer at −20° C. […]
Two samples from Example 4: • 1. […] THF with water by antisolvent were further characterized after drying under vacuum conditions at 40° C. overnight and evaluated.

SMILES: COc1cccc(-c2cc(F)c(Nc3ncccc3C(=O)O)c(F)c2)c1 [1412NC0160A-02]
Particle Size D10 [1]: 0.90 μm
Particle Size D50 [1]: 3.46 μm
Particle Size D90 [1]: 45.05 μm
Particle Size MV [1]: 13.27 μm

SMILES: COc1cccc(-c2cc(F)c(Nc3ncccc3C(=O)O)c(F)c2)c1 [1302NC0160A-01]
Particle Size D10 [1]: 2.54 μm
Particle Size D50 [1]: 5.97 μm
Particle Size D90 [1]: 11.79 μm
Particle Size MV [1]: 6.70 μm

SMILES: COc1cccc(-c2cc(F)c(Nc3ncccc3C(=O)O)c(F)c2)c1 [1412NC0160A-01]
Particle Size D10 [1]: 32.34 μm
Particle Size D50 [1]: 160.95 μm
Particle Size D90 [1]: 238.22 μm
Particle Size MV [1]: 151.47 μm

Second part, led by results:

XRPD after room temperature evaporation ([2]; 1,1,1.3.3.3-Hexafluoro-2-Propanol, 2-Methyl THF, DMF, THF and THP): returned to Pattern 1
XRPD of solids, solvent solubility assessment ([2]; 1,1-Dimethoxymethane, 1,4-Dioxane, 2-Ethoxyethanol, 1,1,1,3,3,3-Hexafluoro-2-Propanol, 2-Methyl THF, Benzyl Alcohol): remained amorphous
XRPD after fast evaporation at 50° C. ([2]; 1,1-dimethoxymethane and 2-propanol): showed amorphous pattern
XRPD after fast evaporation at 50° C. ([2]; 1,3-dioxlane, 1,4-dioxane): showed preferred orientation
XRPD after fast evaporation at 50° C. ([2]; 2-Ethoxyethanol, new peak at 21.1° 2θ): potential new pattern
XRPD of solids, solvent solubility assessment ([2]; 2-propanol, 48% Methanol:52% Water, 93% Ethanol:7% Water, 98.5% Ethanol:1.5% Water, Methanol, tert-Butylmethyl Ether): returned to Pattern 1
XRPD after thermal cycling ([2]; 1,4-dioxane): remained semi-crystalline
XRPD after thermal cycling ([2]; solvents other than 1,4-dioxane): returned to Pattern 1
XRPD after 2-week slurry ([2]; 93% Ethanol:7% Water, 48% Methanol:52% Water, 2-Propanol, 2-Methyl THF): returned to Pattern 1
XRPD after anti-solvent addition + fast cool ([2]; MEK as anti-solvent in 1,4-dioxane, freezer 72 hrs): consistent with Pattern 1
XRPD after fast evaporation at 50° C. ([2]; THP, THF, 2-methyl THF and 1,1,1.3.3.3-Hexafluoro-2-Propanol): returned to Pattern 1
XRPD after solvent drop grinding ([2]; all 16 solvent systems): returned to pattern 1
XRPD after bead milling ([2]; bead milling): less crystalline material
XRPD after fast cooling ([2]; crash cooling of 1,3-dioxolane saturate, freezer 72 hrs): preferred orientation of Pattern 1
XRPD (Grind) ([2]; N,N′-Dimethylacetamide): Pattern 1
XRPD (Grind) ([2]; N,N′-Dimethylformamide): Pattern 1
XRPD after anti-solvent addition at 50° C. ([2]; water addition to all the 16 saturates): returned to Pattern 1
XRPD after anti-solvent addition ([2]; water, room temperature, except 2-Methyl THF, 2-Propanol, 48% Methanol:52% Water, 93% Ethanol:7% Water, Benzyl Alcohol (clear solutions)): returned to Pattern 1
SMILES: COc1cccc(-c2cc(F)c(Nc3ncccc3C(=O)O)c(F)c2)c1 [farudodstat, 2-(3,5-difluoro-3′-methoxybiphenyl-4-ylamino) nicotinic acid]
XRPD after room temperature evaporation ([2]; 1,1-Dimethoxymethane, 1,3-Dioxolane, 1,4-Dioxane): showed preferred orientation of Pattern 1 but returned to Pattern 1 after grinding
XRPD after 2-week slurry then fast evaporation at 100° C. ([2]; 1,1-Dimethoxymethane, 1,3-Dioxolane, 2-Ethoxyethanol, 1,1,1.3.3.3-Hexafluoro-2-Propanol, DMA, DMF and NMP): showed preferred orientation. However, post-grinding returned these to Pattern 1
XRPD after 2-week slurry ([2]; THF and THP): additional peaks with Pattern 1 at 8.1° 2θ (Pattern 1+)
XRPD after fast evaporation at 50° C. ([2]; DMF): pattern 1 with significant preferred orientation
XRPD after anti-solvent addition ([2]; acetone as anti-solvent, 1,1,1.3.3.3-Hexafluoro-2-Propanol): returned to Pattern 1 with additional peaks
XRPD of solids, solvent solubility assessment ([2]; evaporation of clear solution of THF and THP): showed preferred orientation, but later returned to Pattern 1 post grinding

solubility ([3]; 11 organic solvents/mixed solvents, organic solvent or mixture, read-out: relatively poor solubility): < 10000 µg/mL
solubility ([3]; organic solvent or mixture, Acetone:Dichloromethane (1:1), room temperature, read-out: Solubility): < 1580 µg/mL
solubility ([3]; organic solvent or mixture, Acetone:Dichloromethane (3:1), room temperature, read-out: Solubility): < 1900 µg/mL
solubility ([3]; organic solvent or mixture, CHCl3, room temperature, read-out: Solubility): < 570 µg/mL
solubility ([3]; organic solvent or mixture, Cyclohexane, room temperature, read-out: Solubility): < 490 µg/mL
solubility ([3]; organic solvent or mixture, Dichloromethane, room temperature, read-out: Solubility): < 600 µg/mL
solubility ([3]; organic solvent or mixture, Heptane, room temperature, read-out: Solubility): < 810 µg/mL
solubility ([3]; organic solvent or mixture, THF-Heptane (1:1), room temperature, read-out: Solubility): < 1510 µg/mL
solubility ([3]; organic solvent or mixture, Toluene, room temperature, read-out: Solubility): < 530 µg/mL
solubility ([3]; organic solvent or mixture, some solvents, room temperature, read-out: High solubility): > 100000 µg/mL
solubility ([3]; Water, room temperature, read-out: Solubility): < 530 µg/mL
Weight loss on heating ([4]; after heating to 200° C.): minimum weight loss
Form found in screening experiments ([4]; all experiments of Table 4 (anti-solvent, grinding, crystallization, drying, milling, heating/cooling, slurry, evaporation)): predominant form
Stability on recrystallisation ([4]; recrystallized from a number of solvents): stable and reproducible
Polymorph stability ([4]; samples from THF evaporation and THF-water antisolvent, dried under vacuum at 40° C. overnight): stable
SMILES: COc1cccc(-c2cc(F)c(Nc3ncccc3C(=O)O)c(F)c2)c1 [farudodstat DSP polymorph, 2-(3,5-difluoro-3′methoxybiphenyl-4-ylamino)nicotinic acid]
Overall stability of polymorph ([2]; conclusion of screening experiments): highly stable; also recorded: high stability
